Several values for one entry are separate records, joined by “and”; a condition that tells them apart may be missing. Identical values can stand only once. Counter-ions that a name gives are not always drawn. Square brackets hold non-standard residues; d marks the D form. Peptide text beside a SMILES is read from it. * marks the point of attachment. X2 = CC(C)[C@@H](C(=O)*)N(C)CCCCCCN1C(=O)CC(SC[C@H](N)C(=O)O)C1=O; X3 = CC(C)[C@@H](C(=O)*)N(C)CCOCCOCCOCCC(=O)NCCCC[C@H](N)C(=O)O; X4 = C[C@@H](O)[C@@H](C(=O)*)N(C)CCCCCC(=O)NCCCC[C@H](N)C(=O)O; X1 = CC(C)[C@@H](C(=O)*)N(C)CCCCCC(=O)NCCCC[C@H](N)C(=O)O; Dolaproine = CO[C@@H]([C@@H]1CCCN1)[C@@H](C)C(=O)O; Dil = CC[C@H](C)[C@H](NC)[C@@H](CC(=O)O)OC; Oxazinan2yl(1,2) = C1CCN(*)OC1
Key:
[1] = test system: tubulin; test: Fluorescence-based microtubule (tubulin) polymerization assay; assay type: biochemical
Experimental: Tubulin polymerization was investigated using the “Fluorescence-based Microtubule Polymerisation Assay Kit” from Cytoskeleton (Denver, Colo., USA; order number: BK011). With this assay, GTP is added to unpolymerized tubulin, allowing polymerization to take place spontaneously. The assay is based on the binding of the fluorophore 4′,6-di-amidino-2-phenylindole (DAPI) to tubulin. Free and bound DAPI can be differentiated on the basis of different emission spectra.
[…] In addition to the buffer control, paclitaxel, with a polymerization-increasing effect, and vinblastin, with a polymerization inhibiting effect, were run additionally as assay controls. Measurement was carried out using 96-well plates with a half base area. The kinetics of the tubulin polymerization were monitored in a Fluorimeter at 37° C. for 1 hour. The excitation wavelength was 355 nm, and emission was monitored at 460 nm. For the region of linear increase within the first 10 minutes, a calculation was made of the change in fluorescence per minute (ΔF/min), which represents the polymerization rate of the microtubuli. The potency of the test substances was quantified on the basis of their respective reduction of the polymerization rate.

[2] = Caco-2 flux assay for cell permeability; assay type: in vitro ADME; conditions: human, Caco-2 cells, basal to apical
Experimental: The cell permeability of a substance can be investigated by means of in vitro testing in a flux assay using Caco-2 cells [M. D. Troutman and D. R. Thakker, Pharm. Res. 20 (8), 1210-1224 (2003)]. For this purpose, the cells were cultured for 15-16 days on 24-well filter plates. For the determination of permeation, the respective working example was applied in a HEPES buffer to the cells either apically (A) or basally (B) and incubated for 2 hours. After 0 hours and after 2 hours, samples were taken from the cis and trans compartments. The samples were separated by HPLC (Agilent 1200, Böblingen, Germany) using reverse phase columns. The HPLC system was coupled via a Turbo Ion Spray Interface to a Triple Quadropol mass spectrometer API 4000 (Applied Biosystems Applera, Darmstadt, Germany). The permeability was evaluated on the basis of a Papp value, which was calculated using the formula published by Schwab et al. [D. Schwab et al., J. Med. Chem. 46, 1716-1725 (2003)].

[3] = biological target: T1, P-glycoprotein (P-gp, ABCB1) (Homo sapiens, UniProt P08183); test: Flux assay in P-gp overexpressing L-MDR1 cells; assay type: in vitro ADME; conditions: LLC-PK1, basal to apical
T1 construct: expressed in transfected cells; host or cells: LLC-PK1 (pig kidney) cells transfected with human MDR1 (L-MDR1 cells)
T1 sequence (P08183 whole entry): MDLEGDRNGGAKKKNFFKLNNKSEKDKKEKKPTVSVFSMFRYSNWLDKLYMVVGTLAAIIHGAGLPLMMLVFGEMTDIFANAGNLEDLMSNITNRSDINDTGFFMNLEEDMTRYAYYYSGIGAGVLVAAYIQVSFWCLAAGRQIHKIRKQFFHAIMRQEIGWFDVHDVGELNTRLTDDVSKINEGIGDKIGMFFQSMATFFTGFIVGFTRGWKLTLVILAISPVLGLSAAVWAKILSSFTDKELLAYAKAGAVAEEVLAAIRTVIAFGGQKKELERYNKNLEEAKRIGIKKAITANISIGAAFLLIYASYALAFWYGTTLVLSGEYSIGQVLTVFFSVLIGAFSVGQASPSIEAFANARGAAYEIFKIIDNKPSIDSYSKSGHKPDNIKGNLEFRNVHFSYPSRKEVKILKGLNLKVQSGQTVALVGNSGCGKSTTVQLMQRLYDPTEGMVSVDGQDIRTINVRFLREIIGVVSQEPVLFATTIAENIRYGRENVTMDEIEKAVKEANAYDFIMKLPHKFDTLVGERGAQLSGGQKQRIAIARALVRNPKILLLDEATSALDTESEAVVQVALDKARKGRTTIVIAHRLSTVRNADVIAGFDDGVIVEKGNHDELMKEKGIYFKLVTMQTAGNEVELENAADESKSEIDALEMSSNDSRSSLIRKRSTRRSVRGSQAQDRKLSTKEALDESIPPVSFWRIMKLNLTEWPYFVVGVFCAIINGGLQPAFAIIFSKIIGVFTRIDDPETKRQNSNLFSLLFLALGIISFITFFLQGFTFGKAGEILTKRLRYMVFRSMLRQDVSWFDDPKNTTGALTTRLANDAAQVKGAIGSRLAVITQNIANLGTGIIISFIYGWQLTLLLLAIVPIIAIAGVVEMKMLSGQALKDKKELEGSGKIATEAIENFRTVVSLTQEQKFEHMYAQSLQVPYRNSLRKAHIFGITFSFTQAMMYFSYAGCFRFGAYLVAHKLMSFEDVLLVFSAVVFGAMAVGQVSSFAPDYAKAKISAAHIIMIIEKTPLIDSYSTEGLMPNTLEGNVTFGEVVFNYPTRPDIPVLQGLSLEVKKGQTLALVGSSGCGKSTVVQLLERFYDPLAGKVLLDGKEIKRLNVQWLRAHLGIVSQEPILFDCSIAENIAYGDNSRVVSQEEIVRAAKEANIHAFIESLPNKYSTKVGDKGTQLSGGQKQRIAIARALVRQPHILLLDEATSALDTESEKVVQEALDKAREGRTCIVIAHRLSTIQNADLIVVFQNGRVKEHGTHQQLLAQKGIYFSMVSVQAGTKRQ
Experimental: The substrate properties of a substance for P-gp (ABCB1) were determined by means of a flux assay using LLC-PK1 cells which overexpress P-gp (L-MDR1 cells) [A. H. Schinkel et al., J. Clin. Invest. 96, 1698-1705 (1995)]. For this purpose, the LLC-PK1 cells or L-MDR1 cells were cultured on 96-well filter plates for 3-4 days. For determination of the permeation, the respective test substance, alone or in the presence of an inhibitor (such as Ivermectin or Verapamil, for example), was applied in a HEPES buffer to the cells either apically (A) or basally (B) and incubated for 2 hours. After 0 hours and after 2 hours, samples were taken from the cis and trans compartments. The samples were separated by HPLC using reverse phase columns. The HPLC system was coupled via a Turbo Ion Spray Interface to a Triple Quadropol mass spectrometer API 3000 (Applied Biosystems Applera, Darmstadt, Germany). The permeability was evaluated on the basis of a Papp value which was calculated using the formula published by Schwab et al. [D. Schwab et al., J. Med. Chem. 46, 1716-1725 (2003)].

SMILES	Tubulin polymerization in the presence of toxophore in [%]. Tubulin polymerization rate at 1 μM MMAF set at 100% ([1]; toxophore 1 μM)	Tubulin polymerization in the presence of toxophore in [%]. Tubulin polymerization rate at 1 μM MMAF set at 100% ([1]; toxophore 10 μM) [%]	Papp B→A at 2 h [2] [×10⁻⁶ cm/s]	Papp B→A at 2 h [3] [×10⁻⁶ cm/s]
CC[C@H](C)[C@@H]([C@@H](CC(=O)N1CCC[C@H]1[C@H](OC)[C@@H](C)C(=O)N[C@@H](Cc1c[nH]c2ccccc12)C(=O)O)OC)N(C)C(=O)[C@@H](NC(=O)[C@H](C(C)C)N(C)CCCC(=O)NNC(=O)CCCCCN1C(=O)CC(SC[C@H](N)C(=O)O)C1=O)C(C)C (stereo partly drawn) [Example 72, N-(4-{2-[6-(3-{[(2R)-2-Amino-2-carboxyethyl]sulphanyl}-2,5-dioxopyrrolidin-1-yl)hexanoyl]hydrazino}-4-oxobutyl)-N-methyl-L-valyl-N-[(3R,4S,5S)-1-{(2S)-2-[(1R,2R)-3-{[(1S)-1-carboxy-2-(1H-indol-3-yl)ethyl]amino}-1-methoxy-2-methyl-3-oxopropyl]pyrrolidin-1-yl}-3-methoxy-5-methyl-1-oxoheptan-4-yl]-N-methyl-L-valinamide]	109%	27	0.16	0.36
CC[C@H](C)[C@@H]([C@@H](CC(=O)N1CCC[C@H]1[C@H](OC)[C@@H](C)C(=O)N[C@@H](Cc1c[nH]c2ccccc12)C(=O)N1CCCCO1)OC)N(C)C(=O)[C@@H](NC(=O)[C@H]([C@@H](C)O)N(C)CCCCCC(=O)NCCCC[C@H](N)C(=O)O)C(C)C [Example 126, N-(6-{[(5S)-5-Amino-5-carboxypentyl]amino}-6-oxohexyl)-N-methyl-L-threonyl-N-[(3R,4S,5S)-1-{(2S)-2-[(1R,2R)-3-{[(2S)-3-(1H-indol-3-yl)-1-(1,2-oxazinan-2-yl)-1-oxopropan-2-yl]amino}-1-methoxy-2-methyl-3-oxopropyl]pyrrolidin-1-yl}-3-methoxy-5-methyl-1-oxoheptan-4-yl]-N-methyl-L-valinamide trifluoroacetate] (X4-V[Dil][Dolaproine]W-{Oxazinan2yl(1,2)})			0.18	
CC[C@H](C)[C@@H]([C@@H](CC(=O)N1CCC[C@H]1[C@H](OC)[C@@H](C)C(=O)N[C@@H](Cc1c[nH]c2ccccc12)C(=O)O)OC)N(C)C(=O)[C@@H](NC(=O)[C@H](C(C)C)N(C)CCCCCC(=O)NCCCC[C@H](N)C(=O)O)C(C)C [Example 116, N-(6-{[(5S)-5-Amino-5-carboxypentyl]amino}-6-oxohexyl)-N-methyl-L-valyl-N-[(3R,4S,5S)-1-{(2S)-2-[(1R,2R)-3-{[(1S)-1-carboxy-2-(1H-indol-3-yl)ethyl]amino}-1-methoxy-2-methyl-3-oxopropyl]pyrrolidin-1-yl}-3-methoxy-5-methyl-1-oxoheptan-4-yl]-N-methyl-L-valinamide] (X1-V[Dil][Dolaproine]W-OH)	80%	14	0.1	0.4
CC[C@H](C)[C@@H]([C@@H](CC(=O)N1CCC[C@H]1[C@H](OC)[C@@H](C)C(=O)N[C@@H](Cc1c[nH]c2ccccc12)C(N)=O)OC)N(C)C(=O)[C@@H](NC(=O)[C@H](C(C)C)N(C)CCCCCCN1C(=O)CC(SC[C@H](N)C(=O)O)C1=O)C(C)C (stereo partly drawn) [Example 74, N-[6-(3-{[(2R)-2-Amino-2-carboxyethyl]sulphanyl}-2,5-dioxopyrrolidin-1-yl)hexyl]-N-methyl-L-valyl-N-[(3R,4S,5S)-1-{(2S)-2-[(1R,2R)-3-{[(2S)-1-amino-3-(1H-indol-3-yl)-1-oxopropan-2-yl]amino}-1-methoxy-2-methyl-3-oxopropyl]pyrrolidin-1-yl}-3-methoxy-5-methyl-1-oxoheptan-4-yl]-N-methyl-L-valinamide] (X2-V[Dil][Dolaproine]W-NH2)	117%	64	0.5	0.36
CC[C@H](C)[C@@H]([C@@H](CC(=O)N1CCC[C@H]1[C@H](OC)[C@@H](C)C(=O)N[C@@H](Cc1ccc(O)cc1)C(=O)N1CCCCO1)OC)N(C)C(=O)[C@@H](NC(=O)[C@H](C(C)C)N(C)CCCCCC(=O)NCCCC[C@H](N)C(=O)O)C(C)C [Example 127, N-(6-{[(5S)-5-Amino-5-carboxypentyl]amino}-6-oxohexyl)-N-methyl-L-valyl-N-[(3R,4S,5S)-1-{(2S)-2-[(1R,2R)-3-{[(2S)-3-(4-hydroxyphenyl)-1-(1,2-oxazinan-2-yl)-1-oxopropan-2-yl]amino}-1-methoxy-2-methyl-3-oxopropyl]pyrrolidin-1-yl}-3-methoxy-5-methyl-1-oxoheptan-4-yl]-N-methyl-L-valinamide trifluoroacetate] (X1-V[Dil][Dolaproine]Y-{Oxazinan2yl(1,2)})			0.15	
CC[C@H](C)[C@@H]([C@@H](CC(=O)N1CCC[C@H]1[C@H](OC)[C@@H](C)C(=O)N[C@@H](Cc1ccccc1)C(=O)NCc1ccccc1)OC)N(C)C(=O)[C@@H](NC(=O)[C@H](C(C)C)N(C)CCCC(=O)NNC(=O)CCCCCN1C(=O)CC(SC[C@H](N)C(=O)O)C1=O)C(C)C (stereo partly drawn) [Example 78, N-(4-{2-[6-(3-{[(2R)-2-Amino-2-carboxyethyl]sulphanyl}-2,5-dioxopyrrolidin-1-yl)hexanoyl]hydrazino}-4-oxobutyl)-N-methyl-L-valyl-N-[(3R,4S,5S)-1-{(2S)-2-[(1R,2R)-3-{[(2S)-1-(benzylamino)-1-oxo-3-phenylpropan-2-yl]amino}-1-methoxy-2-methyl-3-oxopropyl]pyrrolidin-1-yl}-3-methoxy-5-methyl-1-oxoheptan-4-yl]-N-methyl-L-valinamide]	110%			
CC[C@H](C)[C@@H]([C@@H](CC(=O)N1CCC[C@H]1[C@H](OC)[C@@H](C)C(=O)N[C@@H](Cc1c[nH]c2ccccc12)C(=O)N1CCCCO1)OC)N(C)C(=O)[C@@H](NC(=O)[C@H](C(C)C)N(C)CCCCCCN1C(=O)CC(SC[C@H](N)C(=O)O)C1=O)C(C)C (stereo partly drawn) [Example 76, N-[6-(3-{[(2R)-2-Amino-2-carboxyethyl]sulphanyl}-2,5-dioxopyrrolidin-1-yl)hexyl]-N-methyl-L-valyl-N-[(3R,4S,5S)-1-{(2S)-2-[(1R,2R)-3-{[(2S)-3-(1H-indol-3-yl)-1-(1,2-oxazinan-2-yl)-1-oxopropan-2-yl]amino}-1-methoxy-2-methyl-3-oxopropyl]pyrrolidin-1-yl}-3-methoxy-5-methyl-1-oxoheptan-4-yl]-N-methyl-L-valinamide] (X2-V[Dil][Dolaproine]W-{Oxazinan2yl(1,2)})	121%	35		
CC[C@H](C)[C@@H]([C@@H](CC(=O)N1CCC[C@H]1[C@H](OC)[C@@H](C)C(=O)N[C@@H](Cc1c[nH]c2ccccc12)C(=O)N1CCCCO1)OC)N(C)C(=O)[C@@H](NC(=O)[C@H](C(C)C)N(C)CCOCCOCCOCCC(=O)NCCCC[C@H](N)C(=O)O)C(C)C [Example 117, N-[(18S)-[8-Amino-18-carboxy-12-oxo-3,6,9-trioxa-13-azaoctadec-1-yl]-N-methyl-L-valyl-N-[(3R,4S,5S)-1-{(2S)-2-[(1R,2R)-3-{[(2S)-3-(1H-indol-3-yl)-1-(1,2-oxazinan-2-yl)-1-oxopropan-2-yl]amino}-1-methoxy-2-methyl-3-oxopropyl]pyrrolidin-1-yl}-3-methoxy-5-methyl-1-oxoheptan-4-yl]-N-methyl-L-valinamide trifluoroacetate] (X3-V[Dil][Dolaproine]W-{Oxazinan2yl(1,2)})	60% and 78%			
